Data published in patent publication US9616003B2 (priority 2012, dated 2017).

How the values were obtained:
[1] = prior art statement; cited from earlier work
[2] = 1/16 solution, namely 0.75% solution (nontoxic dosage), and further dilution
Protocol: (§1) The cytotoxicity of the obtained solution is tested by in vitro cell culture (in the gingiva and periodontal ligament cells) studies.

gingiva cells = system: gingiva cells
Protocol: (§2) 12% stock solution is prepared from boric acid (12 g boric acid/100 ml distilled water). ½, ¼, ⅛, 1/16, 1/32, 1/64, 1/128 dilutions are prepared from this solution. All these processes are carried out in laminar flow cabin II. Solutions are sterilized by filters with a sieve size of 0.22 μm. The pH of the prepared boric acid solution must be 4.9.
as §1

[3] = system: periodontal ligament cells
Protocol: as §2, §1

[4] = system: chronic periodontitis patients; conditions: boric acid 0.75%

[H]/N=C(\N/C(=N/[H])NCCCCCCNC(=N)NC(=N)Nc1ccc(Cl)cc1)Nc1ccc(Cl)cc1 [chlorhexidine]
toxicity in cellular level [1]: toxic in cellular level

OB(O)O [boric acid]
antibacterial features [2]: maintains its antibacterial features even if it is diluted more
viability of the cells (gingiva cells): diminish the viability of the cells until a dilution of 1/16
viability of the cells [3]: diminish the viability of the cells until a dilution of 1/16
clinical periodontal parameters ([4]; compared to normal saline (control) and chlorhexidine groups): better in clinical periodontal parameters compared to normal saline (control) and chlorhexidine groups
side effects ([4]; three-month follow up of enrolled patients): no side effects
